Measured values from patent US9918986B2, “Methods and compounds for preventing osteoarthritis” (UNIVERSITY COLLEGE CARDIFF CONSULTANTS LIMITED, priority 2013, dated 2018).

How the values were obtained:
MNX rats [1] = assay: Knee swelling in meniscal transection (MNX) rats; type: in vivo, rat
Description: (§1) We have established the meniscal transection (MNX) rat model of osteoarthritis. Surgery resection was performed wherein cutting through and removing part of the medial collateral ligament and then transecting the medial meniscus was performed under Home Office License. Surgery was performed under anaesthesia. Animals were then allowed to recover from surgery.
(§2) Using the MNX model, we tested the effects of NBQX injected directly into the knee joint. There were 5 groups of male Sprague-Dawley rats, 3 animals per group as follows: • MNX+sterile H2O (vehicle control) • MNX+2.5 mM NBQX • MNX+12.5 mM NBQX • MNX+25 mM NBQX • Naïve
(§3) NBQX treated rats received two intra-articular injections, the first immediately after MNX surgery and the second 7 days later. A single dose of Temgesic was also given sub-cutaneously to relieve pain following surgery. […] Vehicle control rats received injections of sterile H2O delivered in the same way at the same times. Over 21 days, weight, knee swelling (digital calliper) and incapacitance (Linton incapacitance meter) were measured on days 0, 1, 2, 3, 7, 8, 10, 14 and 21. The Linton incapacitance meter measures the weight exerted on each back leg whilst the rat is stationary in a clear Perspex box. The difference in weight bearing can then be calculated between the left and right leg. All rats were euthanized on day 21 and the knee joints fixed in formalin for histology.

IL-6 mRNA = IL-6 mRNA expression in AIA rat joint tissues (QRT-PCR); type: in vivo; conditions: day 21
human RA FLS = conditions: cited from earlier work
Cathepsin K mRNA = assay: Bone phenotype mRNA expression in AIA rat knees; type: in vivo; conditions: day 21
MNX rats [2] = assay: Incapacitance testing in MNX rats; type: in vivo, rat; conditions: day 8
Description: as §1, §2, §3

RA FLS = conditions: cited from earlier work
AIA rats [3] = assay: KA1/AMPAR2 immunohistochemistry and TRAP staining in AIA rats; conditions: day 21
Description: (§4) For AIA, after a 7 day settling in period, animals received a subcutaneous injection of methylated bovine serum albumin (mBSA; 0.5 mg/ml; Sigma, Poole, UK) emulsified with an equal volume of Freund's complete adjuvant (CFA; 0.25 mg Mycobacterium tuberculosis: Sigma) into the right flank. A second subcutaneous injection of the emulsion was administered in the left flank 7 days later. Fourteen days following the second injection (day 0), an intra-articular injection of mBSA (0.5 mg in 50 μl saline) was administered into the right knee of 15 rats to serve as the AIA group. Another 15 rats received an intra-articular injection of 0.5 mg mBSA mixed with 2.5 mM NBQX (Tocris, Bristol, UK) in 50 μl saline, into the right knee. These rats served as the NBQX treatment group. […] Six control rats received no subcutaneous or intra-articular injections.
GluRs and transporters were localised in sequential paraffin knee sections (9 AIA, 9 NBQX and 6 control knees) using antibodies to kainate (anti-KA1, 1:400 dilution), AMPA receptor-2 (anti-ionotropic glutamate receptor-2, 1:100, both Abcam, Cambridge, UK), GLAST (GLAST11-S, 1:100) and EAAC1 (EAAC11-A, 1:200, both Alpha Diagnostic International, Texas, USA). AMPAR2 was also localised in 6 MNX and 6 naïve rats. Sections, processed as for histology, were deparaffinised and rehydrated prior to antigen retrieval using 1 mg/mitrypsin (Sigma) for 20 minutes at 37° C. Endogenous peroxidase activity was blocked with 0.3% hydrogen peroxide (Sigma) for 30 minutes followed by 3 washes in 1×TBS/0.1% tween for 15 minutes each. Sections were treated with 10% normal blocking serum (Sigma) for 1 hour prior to overnight incubation at 4° C. with primary antibody, followed by 3 washes in 1×TBS/0.1% tween. […] ABC horseradish peroxidase kit following the manufacturer's instructions (Vector Laboratories, Peterborough, UK). Sections were developed using nickel enhanced diaminobenzidine (DAB) (Vector Laboratories), counterstained in Mayer's haematoxylin (Fisher Scientific), rinsed in tap water, dehydrated, cleared in xylene and mounted. […]

Kainate receptor = conditions: cited from earlier work
AMPA receptor = conditions: cited from earlier work
AIA rats [4] = assay: Macroscopic knee analysis (X-ray, MRI) in AIA rats; type: in vivo, rat; conditions: day 21
Excerpt: Prior to decalcification, whole rat knees were examined by radiography and MRI. Radiographs of both the inflamed and non-inflamed knees of 9 AIA, 9 NBQX and 3 control rats were obtained using a Kodak FX Pro in-vivo Imaging System (Advanced Molecular Vision, Grantham, UK), and the images analysed using Kodak Molecular Imaging software version 5 with the following parameters: 30 second exposure time at 35 kV, 4.96 F-stop, 71.4 mm FOV, 9.8 mm focal plane.
Both the inflamed and non-inflamed knee joints of 6 AIA and 6 NBQX rats were imaged using a high spatial resolution MRI scanning protocol at the Experimental MRI Centre (EMRIC, School of Biosciences, Cardiff University). Each pair of knees was embedded in 1% agarose (Promega) inside a 50 ml falcon tube prior to scanning. MRI was performed using a Bruker Biospin Advance 9.4T ([…]) MRI system equipped with a transmit-receive quadrature coil. The scanning acquisition parameters were as follows: echo time […], repetition time 24 msec, field of view […]; matrix 640×280×280; and flip angle 180°. Images were subsequently viewed and analysed in ParaVision 5.1 (Bruker) and Analyze 10.0 software Mayo Biomedical Imaging Resource, Rochester, Minn., USA).

AIA rats [5] = assay: Knee swelling in AIA rats; type: in vivo, rat
Description: Diameters of the inflamed (right) and non-inflamed (left) knees of all the rats were measured using a Mitutoyo® digital calliper (RS Components Ltd, Northants, UK) to quantify swelling. […] Three readings were taken for each knee and the difference between the means of the inflamed and non-inflamed knee gave a value in millimeters of knee swelling.

ligament ruptured mice = assay: Knee swelling in non-invasive ligament rupture mouse model; type: in vivo; conditions: 20 mM intra-articular
Description: We have established a non-invasive mouse model of post-traumatic knee joint degeneration due to ligament rupture.
Using custom built cups to hold the knee in flexion, loads (12N, 4 Hz, sine wave; ElectroForce® 3200, BOSE, USA) were applied to the right knees of 12-week-old C57Bl6 mice (n=10). […] Left knees served as unloaded controls. Immediately following ligament rupture, mice were given an intra-articular injection of 20 mM NBQX in to the right knee, whilst the control mice received an intra-articular injection of sterile H2O (vehicle control). A single dose of Temgesic was also given sub-cutaneously to relieve pain for up to 12 hours following loading.
Lameness scores were carried out every day for the first week and then every few days the following weeks to assess the welfare of the animals and the potential need for pain relief. Knee swelling was measured using digital callipers on days 0, 1, 2, 3, 7, 16 and 21. All mice were euthanized on day 21 and the knee joints fixed in formalin for histology.

Body weight in MNX rats = type: in vivo, rat; conditions: all rats; over 21 days
Description: as §3

AIA rats [6] = assay: Histological disease assessment in AIA rats (synovial inflammation, joint degradation); type: in vivo, rat; conditions: day 21
Description: On day 21, 9 AIA, 9 NBQX and 3 control rats were culled and their knees dissected intact and fixed in 10% neutral buffered formalin solution (Sigma) for 2 days. Knees were decalcified in 10% EDTA (Fisher Scientific, Loughborough, UK) at 4° C., embedded in paraffin wax, sectioned (6 μm) in the coronal plane and stained with haematoxylin and eosin for synovial inflammation or toluidine blue/safranin-O for cartilage and bone scoring or retained for immunohistochemical analysis. Synovial inflammation and joint degradation were scored by two independent observers blinded to treatment group. An established scoring system was used to score synovial inflammation (3). Briefly, 3 parameters were scored: synovial hyperplasia (pannus formation) (0-3), synovial infiltrate (0-5) and synovial exudate (0-3), to give a maximum score of 11 per joint. Joint degradation was scored using a modified Mankin score (Table 1) consisting of: cartilage surface integrity (0-6), chondrocyte appearance (0-2), proteoglycan loss (0-4), tidemark integrity (0-2) and bone changes (0-3) to give a maximum score of 17 per joint quadrant (medial and lateral femoral condyles (MFC and LFC respectively) and medial and lateral tibial plateaux (MTP and LTP respectively)) totaling to a maximum of 68 per knee. In each knee, two representative sections ˜500 μm apart were scored for joint degradation.

[7] = Body weight in ligament rupture mouse model; type: in vivo; conditions: all mice; over 21 days
Description: Using our non-invasive ligament rupture model, following trauma mice were given an intra-articular injection of 20 mM NBQX in the right knee. The left knee served as unloaded controls. Sterile water injections were performed in some mice to act as vehicle control. Knee swelling was measured using digital callipers on days 0, 1, 2, 3, 7, 16 and 21. […] Lameness scores were not severe enough to warrant extra doses of pain relief.

AIA rats [8] = assay: Footprint analysis in AIA rats
Description: as §4
Hindlimb walking patterns were evaluated by footprint analysis on days 0, 1, 2, 3, 4, 7, 9, 14 and 21 as previously described (4). […] Three sets of at least two stepping cycles per side (six sequential steps) were performed for each rat per experimental day. Three parameters were measured: limb rotation (angle between a line through the centre of the foot pad parallel to the walking direction and a line through the third digit), stride length (distance between feet of the same side) and stance width (distance between feet of the right and left stepping cycle).

## NS(=O)(=O)c1cccc2c1c([N+](=O)[O-])cc1[nH]c(=O)c(=O)[nH]c12 [NBQX, 2,3-dihydroxy-6-nitro-7-sulfamoyl-benzo[f]quinoxaline-2,3-dione]
MNX rats [1]; day 8, 25 mM intra-articular, P<0.05
  knee swelling of vehicle control MNX rats compared to NBQX treated MNX rats: significantly greater knee swelling
MNX rats [1]; day 14, 2.5 mM intra-articular, P<0.01
  knee swelling of vehicle control MNX rats compared to NBQX treated MNX rats: significantly greater knee swelling
MNX rats [1]; day 14, 12.5 mM intra-articular, P<0.05
  knee swelling of vehicle control MNX rats compared to NBQX treated MNX rats: significantly greater knee swelling
IL-6 mRNA; inflamed knee, P<0.05
  IL-6 relative expression levels in meniscus vs AIA rats: significantly lower
IL-6 mRNA; left non-inflamed knee
  IL-6 relative expression levels in meniscus vs AIA rats: not significant
Human RA FLS
  MMP-2 expression by FLS: did not affect
Cathepsin K mRNA
  cathepsin K mRNA expression, inflamed knees vs AIA inflamed knees: significant reduction
MNX rats [2]; 2.5 mM, P<0.01
  difference in weight bearing left/right leg of vehicle control MNX rats compared to NBQX treated rats: significantly greater difference in weight bearing
MNX rats [2]; 12.5 mM, P<0.05
  difference in weight bearing left/right leg of vehicle control MNX rats compared to NBQX treated rats: significantly greater difference in weight bearing
MNX rats [2]; 25 mM, P<0.01
  difference in weight bearing left/right leg of vehicle control MNX rats compared to NBQX treated rats: significantly greater difference in weight bearing
RA FLS
  inhibition of IL-6 release increased by high glutamate concentrations: inhibited
AIA rats [3]
  GluR positive cells: apparent reduction
  TRAP positive osteoclasts vs AIA: less abundant
  extent of bone remodeling: reduced
Kainate receptor
  Kainate receptor antagonist: Yes
AMPA receptor
  AMPA receptor antagonist: Yes
AIA rats [4]
  joint erosion in MRI: greatly reduced
  joint erosions in X-rays: Fewer joint erosions
  synovial inflammation in MRI: greatly reduced
AIA rats [5]; day 1, 2.5 mM intra-articular, right knee
  mean knee swelling: 2.95 mm
AIA rats [5]; day 1, vs AIA rats, 2.5 mM intra-articular
  reduction in peak knee swelling: 33%
AIA rats [5]; every time point throughout 21 days, P<0.001
  knee swelling vs AIA rats: significant reduction
Ligament ruptured mice; day 7, P<0.05
  knee swelling vs vehicle controls: significantly less knee swelling
Ligament ruptured mice; day 21, P<0.001
  knee swelling vs vehicle controls: significantly less knee swelling
Ligament ruptured mice; from day 2
  knee swelling compared to day 0 measurements: no significant difference
Body weight in MNX rats
  weight: consistently put on weight
AIA rats [6]
  synovial hyperplasia, exudate, infiltrate and articular surface degradation vs AIA rats: significantly less severe
AIA rats [6]; P<0.001
  average joint degeneration severity score vs AIA rats: significantly reduced
  bone changes score vs AIA: largest difference
  synovial inflammation score vs AIA rats: significantly lower
AIA rats [6]; P<0.01
  joint degradation in the MFC vs AIA rats: significantly less joint degradation
  proteoglycan loss score vs AIA: significantly lowered
  tidemark integrity score vs AIA: significantly lowered
AIA rats [6]; P<0.05
  chondrocyte appearance score vs AIA: significantly lowered
  joint degradation in the LFC vs AIA rats: significantly less joint degradation
[7]
  weight: consistently put on weight
AIA rats [8]; P<0.05
  stance width vs control rats: significantly greater
  stride length vs control rats: significantly shorter
AIA rats [8]; by day 14
  stride length: returned to normal
AIA rats [8]; by day 21
  stance width: normal
AIA rats [8]; days 1 and 2
  weight bearing (footprints): able to weight bear
AIA rats [8]; right limb, P<0.05
  degree of foot rotation vs control rats: significantly greater
